The source of these data is patent US7202081B2, “Simultaneous determination of cell proliferation inhibition activity and toxicity” (Hoffmann-La Roche Inc., priority 2003, dated 2007).

Like-named read-outs stand apart in the source and are kept apart here.

This series has as its system Human cord blood CD34+ cells. The series is described as follows: cells. The class given is cell-based. The following applies: for proliferation inhibition: CD34 cells, cell number, FIG. 3, concentration range for which the percentage of dead cells is stated; for IC50: Homo sapiens, cytokine stimulated CD34 cells; for percentage of dead cells to total cells: human. Here is the method:
Human cord blood CD34+ cells were isolated to high purity (>90%) by immunomagnetic cell sorting, aliquoted and frozen in DMSO containing medium. For cell culture setup, frozen CD34+ cells were thawed and 200 cells were seeded in 200 μl complete medium of a well of a 96 well plate. The basal cell culture medium consisted of IMDM-Medium supplemented with 20% human AB serum and antibiotics (pen/strep). The CD34+ cells were activated by addition of following cytokine cocktail: hu-SCF (100 ng/ml), hu-IL6 (10 ng/ml), hu-GM-CSF (100 U/ml), hu-TPO (25 ng/ml) and hu-EPO (5 U/ml). Cultivation was performed in incubators at 37° C., high humidity and 7% CO2.
Two different experimental setup were used: 1) addition of the inhibitor compound prior supplementation of the medium with cytokines to hit preferentially resting cells, and 2) addition of inhibitor compound 4 days after CD34 activation with cytokines to hit preferentially activated cells.
Dependent on the proliferation rate of the CD34+ cells, harvest and analysis of cell number and cytotoxicity was performed after 9–10 d cell culture. The cell number and cytotoxicity was analysed by FACS technique. The number of cells present in the well was counted by comparison with an internal bead standard. A aliquot of 10000 beads was added to each well harboring 200 μl medium volume FLUOSPHERES® polystyrene, 15 μm; Molecular Probes).
A gate, shown as rectangular region, was set onto the standard beads, a distinct number was counted, analysis was stopped and the corresponding volume of medium containing cells was calculated. […] The viable cells appear again in the middle/right position of the forward scatter (FSC) displaying low/no propidium iodide labeling. The few dead cells appear left or in the upper/left position relative to viable cell population. The FACS measurement took an aliqout count of the beads and calculated the number of cells being present within the well, whereas the cytotoxicity, the number of dead cells, was recorded in parallel during this measurement (addition of propidium iodide; final concentration 1 μg/ml). […] At the highest inhibitory and cytotoxic concentration very few cells were present anymore in the viable cell cluster and the majority of cells had been killed as evident by increased PI staining or fragmentation (panel H).
A typical example of the calculation of the number of CD34 cells and percentage of dead cells in a well is shown in FIG. 3 for two cytotoxic compounds, namely 5-fluorouracil and doxorubicine. […] The increase of the percentage of dead cells obtained from the analysis of the PI positive cell fraction (FIG. 2 panels E to H) is shown as solid line.

In the case of `O=c1[nH]cc(F)c(=O)[nH]1` [5-fluorouracil], the proliferation inhibition entry was “more than 50%” and the “percentage of dead cells to total cells” value is given as 0-25%. Also, for the setting “240 h, 9–10 d culture, FACS count against bead standard, tested 0.1–100 μmol/l, read-out: IC50 value for the cell number analysis”, the half-inhibitory concentration (IC50) (in general, the concentration that inhibits the measured activity by half) amounted to 0.34 µM.

In the case of `COc1cccc2c1C(=O)c1c(O)c3c(c(O)c1C2=O)C[C@@](O)(C(=O)CO)C[C@@H]3O[C@H]1C[C@H](N)[C@H](O)[C@H](C)O1` [doxorubicine], the proliferation inhibition result was “about 80%” and the “percentage of dead cells to total cells” value is recorded as roughly 40%. In addition, where the note is “240 h, 9–10 d culture, FACS count against bead standard, tested 1–1000 ng/ml, read-out: IC50 value (cell number) from IC50 calculation program”, the IC50 was 0.67 ng/mL. For the same compound, the IC50 (FIG. 3 legend, tested 1–1000 ng/ml, read-out: IC50 value for the cell number analysis) came out at 0.67 ng/mL.
